Where “and” joins values, the source holds several entries; their conditions need not be identical. Equal values may be shown once. Entries after “also recorded” stand apart in the source; their conditions may differ.
Legend:
MB49 cells [1] = conditions: mouse, in vivo
[2] = test system: HSCs (LKS+ cells) and immune cells in BM and bladder; conditions: mouse, in vivo
MB49 cells [3] = conditions: mouse, in vivo; remark: listed apart in the source
MB49 cells [4] = test system: MB49 cells
B16-F10 cells = conditions: mouse, in vivo
[5] = mouse, in vivo
bladder cancer = conditions: human, in vivo; cited from earlier work

## β-Glucan
MB49 cells [1]
  increase in survival: 50% and 40%
  survival: 40%
  survival after neutrophil depletion: 10%
  tumor growth / tumoral volume (histopathology, MRI, tumoral weight): suppressing tumoral growth; also recorded: reduced tumor growth; also recorded: significant reduction in tumor volume
MB49 cells [1]; ip
  enhanced survival compared to PBS-control group: 45%
[2]
  frequency and absolute number of neutrophils in bladder: significantly increased
  frequency of lymphocytes / adaptive immune cells (CD4+ and CD8+ T cells) in bladder: remained unchanged
[2]; ip
  frequency and total cell number of neutrophils in BM: increased
MB49 cells [3]
  tumor growth: developed tumors

## CC(=O)N[C@@H](CS)C(=O)O [NAC, N-Acetyl Cysteine]
MB49 cells [4]
  effect of ROS scavenger on cytotoxic activity of trained neutrophils: abolished the cytotoxic activity

## Bacillus Calmette-Guérin [BCG]
MB49 cells [1]
  increase in survival: 50%
  survival: 50-70% and 50%
  tumor growth / tumoral volume (histopathology, MRI, tumoral weight): substantial reduction in tumoral volume; also recorded: reduced tumor growth; also recorded: significant tumor reduction
MB49 cells [1]; iv
  enhanced survival: 40-50%
[2]
  LKS+ population in BM, frequency and absolute number: significant expansion
  frequency and absolute number of monocytes in BM: increased
  frequency and absolute number of neutrophils in BM: increased
  frequency and absolute number of neutrophils in bladder: increased
  frequency and absolute numbers of dendritic cells in BM: increased
  frequency and absolute numbers of dendritic cells in bladder: increased
  frequency and absolute numbers of monocytes in bladder: increased
  frequency and total cell numbers of NK cells in bladder: increased
  frequency and total cell numbers of macrophages in bladder: increased
  frequency of lymphocytes / adaptive immune cells (CD4+ and CD8+ T cells) in bladder: increased
  proportions of long-term HSCs (LT-HSCs) in BM: reduction
  proportions of multipotent progenitors (MPPs) in BM: increases
  proportions of short-term HSCs (ST-HSCs) in BM: increases
MB49 cells [3]
  tumor growth: significantly reduced tumor growth
B16-F10 cells
  BM-LKS+ population: significant expansion
[5]
  BCG dissemination to organs: reached the spleen, draining lymph nodes, and BM
  BCG elimination in urine: eliminated in the urine
Bladder cancer
  efficacy of BCG treatment in bladder cancer: 30-50%
  intolerance due to adverse effects: about 20%
  patients experiencing relapse: up to 40%
  patients unresponsive to BCG immunotherapy: up to 50%

— patent publication US20250352629A1, “ADJUVANT FOR BACILLUS CALMETTE-GUERIN CANCER IMMUNOTHERAPY” (The Royal Institution for the Advancement of …, priority 2024, published 2025)
